Reference: US20190223483A1, “SENSORY MODIFIER COMPOUNDS” (CARGILL, INCORPORATED, priority 2017, published 2019)

Experiments:
Assay type in all cases: in vivo
[1] = Roundtable assessment of mouthfeel (scale 0 to 2)
Protocol: (§1) For other sweetness attributes, the solutions were tested by a panel of at least four individuals that are highly-trained in tasting steviol glycoside solutions. The highly-trained panelists used a roundtable methodology to assess each sweetness attribute. To test each solution, the highly-trained panelists dispensed approximately 2 mL of each solution into their own mouths by transfer pipet, dispersed the solution by moving their tongues, and recorded a value for the particular sweetness attribute being tested. Between tasting solutions, the panelists were able to cleanse their palates with water. For each sweetness attribute, the panelist agreed on a descriptive scale with relative intensities assigned for each sweetness attribute and then recorded the values for each sweetness attribute against this. For example, this roundtable assessment of sweetness linger assigned a scale of 0 to 6 with a score of 0 indicating no sweetness linger and a score of 6 indicating extreme sweetness linger. Roundtable assessment of sweetness linger assigned a scale of 0 to 6 with a score of 0 indicating no sweetness linger and a score of 6 indicating extreme sweetness linger (0=none, 1=trace, 2=slight, 3=moderate, 4=definite, 5=strong, 6=extreme). Roundtable assessment of rounded assigned a scale of 0 to 3 with a score of 0 indicating spikey and a score of 3 indicating desirable rounded (0=none, 1=mostly spikey, some rounded, 2=mostly rounded, some spikey, 3=rounded). Roundtable assessment of mouthfeel assigned a scale of 0 to 2 with a score of 0 indicating water and a score of 2 indicating syrupy (0=water, 1=sucrosey, 2=syrupy). Roundtable assessment of bitterness assigned a scale of 0 to 6 with a score of 0 indicating no bitterness and a score of 6 indicating extreme sweetness linger (0=none, 1=trace, 2=slight, 3=moderate, 4=definite, 5=strong, 6=extreme). Roundtable assessment of off tastes assigned a scale of 0 to 6 with a score of 0 indicating no bitterness and a score of 6 indicating extreme off tastes (0=none, 1=trace, 2=slight, 3=moderate, 4=definite, 5=strong, 6=extreme).
A series of assays were carried out to characterize a sweetness quality of mouthfeel (0=water, 1=sucrosey, 2=syrupy) of steviol glycoside compositions with sensory modifier compound using the roundtable methodology described in Example 1. […] Solutions of steviol glycosides and sensory modifier compound were prepared at increasing ratios of sensory modifier to steviol glycoside by weight. The steviol glycosides were RebA (4 glycoside groups), RebD (5 glycoside groups), RebM (6 glycoside groups), and OPS1-5(7 glycoside groups) and the sensory modifier compound was monocaffeoylquinic and dicaffeoylquinic acids prepared from yerba mate. The concentration of steviol glycosides was 700 ppm in each solution. […]

[2] = Roundtable assessment of spikey/rounded sweetness quality (scale 0 to 3); design: key: 0=none; 1=mostly spikey, some rounded; 2=mostly rounded, some spikey; 3=rounded
Protocol: as §1
A series of assays were carried out to characterize a sweetness quality of a not preferred spikey quality (a zero value) to a more desirable rounded quality (a 3 value) of steviol glycoside compositions with sensory modifier compound using the roundtable methodology described in Example 1. Rounded quality has the sensory experience of being more like sucrose. […] Solutions of steviol glycosides and sensory modifier compound were prepared at increasing ratios of sensory modifier to steviol glycoside by weight. The steviol glycosides were RebA (4 glycoside groups), RebD (5 glycoside groups), RebM (6 glycoside groups), and OPS1-5(7 glycoside groups) and the sensory modifier compound was monocaffeoylquinic and dicaffeoylquinic acids prepared from yerba mate. […] The solutions were tested for spikey/rounded.

[3] = Roundtable assessment of botanical notes (scale 0 to 5); design: key: 0 = none; 1 = trace/faint; 2 = slight; 3 = moderate; 4 = definite; 5 = strong; 6 = extreme
Protocol: as §1
Roundtable assessment of botanical notes assigned a scale of 0 to 5 with a score of 0 indicating no botanical notes and a score of 5 indicating strong (0=none, 1=trace, 2=slight, 3=moderate, 4=definite, 5=strong).
A series of assays were carried out to characterize botanical notes of sensory modifier compound (0=none, 1=trace/faint, 2=slight, 3=moderate, 4=definite, 5=strong) in steviol glycoside compositions using the roundtable methodology described in Example 1. […] Solutions of steviol glycosides and sensory modifier compound were prepared at increasing ratios of sensory modifier to steviol glycoside by weight. […] The concentration of steviol glycosides was 700 ppm in each solution. The solutions were tested for botanical notes.

[4] = steviol glycoside 700 ppm + yerba mate mono/dicaffeoylquinic acids 630 ppm
[5] = steviol glycoside 700 ppm + yerba mate mono/dicaffeoylquinic acids 946 ppm
[6] = steviol glycoside 700 ppm + yerba mate mono/dicaffeoylquinic acids […]
[7] = steviol glycoside 700 ppm, sensory modifier 0 ppm

SMILES: C=C1C[C@@]23CC[C@H]4[C@@](C)(CCC[C@@]4(C)C(=O)O[C@@H]4O[C@H](CO)[C@@H](O)[C@H](O)[C@H]4O)[C@@H]2CC[C@]1(O[C@@H]1O[C@H](CO)[C@@H](O)[C@H](O[C@@H]2O[C@H](CO)[C@@H](O)[C@H](O)[C@H]2O)[C@H]1O[C@@H]1O[C@H](CO)[C@@H](O)[C@H](O)[C@H]1O)C3 [RebA, Rebaudioside A]
- Mouthfeel [1, 4]: Not noted by panel
- Mouthfeel [1, 5]: Not noted by panel
- Mouthfeel [1, 6]: Not noted by panel
- Spikey/rounded (spikey = 0) (rounded = 3) [2, 4]: Not observed
- Spikey/rounded (spikey = 0) (rounded = 3) [2, 5]: Not observed
- Spikey/rounded (spikey = 0) (rounded = 3) [2, 6]: Not observed
- Spikey/rounded (spikey = 0) (rounded = 3) [2, 7]: 0
- Botanical notes [3, 4]: 1
- Botanical notes [3, 5]: 3
- Botanical notes [3, 6]: Not observed
- Botanical notes [3, 7]: Not observed
